Drawing on patent US20210353624A1, “METHOD OF TREATING CANCER WITH TELOTRISAT OR A PRODRUG THEREOF” (TerSera Therapeutics LLC, priority 2020, published 2021), this text covers cell confluence for 1 compound.

In one assay the test system is colon cancer (HT-29). Description: Cell confluence of tumor cell line grown with telotristat ethyl. The format is cell-based. Particulars: HT-29 cells; 0, 5, 15 and 30 μM telotristat ethyl; 24 to 96 hours; impact ranked between 94T778 and TFK-1. As to the method: (§1) This example provides experiments assessing the effects of telotristat ethyl on three aggressive cancer cell lines—liposarcoma (94T778), colon cancer (HT-29), and cholangiocarcinoma (TFK-1)—and three “normal” cell lines—fallopian tube epithelium (FT240), ovarian surface epithelium (OSE22), and first trimester placental fibroblasts (FTP).
(§2) The cells were grown with 0, 5, 15 and 30 μM telotristat ethyl, plated into four-chambered slides with an initial confluence of at least 30%, and cultured for 24 to 96 hours. At the end of each 24-hour period, cell density was measured with hematoxylin, and the presence of 5-HT was assessed by immunohistochemistry. Experiments were performed in triplicate. Cell confluence was determined, and the 5-HT expression was recorded as an H-score.

The subject of the next assay is liposarcoma (94T778). The assay is described as above. Particulars: 94T778 cells; 0, 5, 15 and 30 μM telotristat ethyl; 24 to 96 hours; confluence decreased progressively with concentration. In kind it is cell-based. As to the method:
as §1, §2

Consider `CCOC(=O)[C@@H](N)Cc1ccc(-c2cc(O[C@H](c3ccc(Cl)cc3-n3ccc(C)n3)C(F)(F)F)nc(N)n2)cc1` [telotristat ethyl, (S)-ethyl 2-amino-3-(4-(2-amino-6-((R)-1-(4-chloro-2-(3-methyl-1H-pyrazol-1-yl)phenyl)-2,2,2-trifluoroethoxy)pyrimidin-4-yl)phenyl)propanoate], for which the cell confluence result was “between these two” with colon cancer (HT-29) and “most impacted” in the assay on liposarcoma (94T778).
